Each structure is given as a SMILES string.

For one test, the target named is T1, human MAGL (Homo sapiens, UniProt Q99685).
T1 construct: recombinant MAGL enzyme (aa 2-303 RBC, internal preparation)
T1 sequence (Q99685 2-303): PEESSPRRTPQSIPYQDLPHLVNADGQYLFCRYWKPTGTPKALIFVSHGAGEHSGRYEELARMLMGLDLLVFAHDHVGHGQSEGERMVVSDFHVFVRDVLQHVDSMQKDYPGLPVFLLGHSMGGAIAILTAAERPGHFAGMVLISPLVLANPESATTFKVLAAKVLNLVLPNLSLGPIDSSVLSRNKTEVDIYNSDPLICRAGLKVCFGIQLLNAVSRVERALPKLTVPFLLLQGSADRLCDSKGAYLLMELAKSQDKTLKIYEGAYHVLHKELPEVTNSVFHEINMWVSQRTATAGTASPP
The test can be described thus: MAGL inhibition potency, 4-nitrophenyl acetate (4NPA) hydrolysis, absorbance 405 nm (Example A). It is filed as biochemical. To be noted: Method 2: Cayman Chemical MAGL enzyme, 10 nM; 4NPA substrate; read-out: Potency. An excerpt: The potency of certain compounds for inhibiting MAGL were obtained using the following assays.
The monoacylglycerol lipase inhibitor screening assay kit from Cayman Chemical was used to measure the MAGL potency for the compounds in Tables A-1, A-2, A-3.
Cayman's Monoacylglycerol Lipase Inhibitor Screening Assay provides a method for screening human MAGL inhibitors. MAGL hydrolyzes 4-nitrophenylacetate resulting in a yellow product, 4-nitrophenol, with an absorbance of 405-412 nm.
MAGL Inhibition was measured by the following assay. Monoacylglycerol Lipase (MAGL) inhibition was measured using recombinant MAGL enzyme (aa 2-303 RBC, internal preparation) and the substrate 4-Nitrophenyl acetate (4NPA) (Sigma-Aldrich, N8130). Hydrolysis of the substrate in the presence of the enzyme was measured by absorbance at 405 nm. 10 μL of assay buffer (10 mM Tris pH 7.5, 1 mM EDTA, 0.9% DMSO) was added to a black 384-well non-binding plate with clear bottom (Greiner, 781906) for each reaction. Compounds were dispensed using an acoustic liquid handler (Echo, Beckman) at 45 nL (0.1% DMSO). Test compounds and control for MAGL inhibitor JZL-184 (Caymen Chemical, 13158) were tested in 10-concentration IC50 mode with 3-fold serial dilution at a starting concentration of […]. DMSO control wells were included for reference. A 10.8 nM (1.8×) MAGL mix in assay buffer was prepared, with 25 μL added to each reaction well, for a final assay concentration of […]. No enzyme wells received 25 μL of buffer. Plate was incubated at room temperature for 30 minutes. 35 mM solution of 4NPA in methanol was prepared daily A 4.5×4NPA substrate solution was prepared in assay buffer and 10 μL was added to each reaction well, for a final assay concentration of 0.25 mM. Plate was spun for 1 minute at 1000 rpm before measuring absorbance using a CLARIOstar plate reader (BMG Labtech). A kinetic reading at 405 nm was done every minute for 30 minutes. Data was analyzed using the linear slope of the reaction progress curve and the average of the no-enzyme wells (background) was subtracted from the data. The background-subtracted slope data was converted to % activity using the average of wells with enzyme and DMSO vehicle. IC50s were calculated using GraphPad software (Sigmoidal dose response, variable slope equation).
Table 8 provides potency measurements of MAGL inhibition measured using the Potency Assay of Example A above, with the following modifications described in Table C.
The number after each letter for potency measurement value indicates the Method from Table C that was used to obtain that measurement value (e.g. “A(1)” indicates an IC50 measurement of <50 nM obtained from the Method 1 of Example A in Table C).
For the compound `Cc1cc(C2CC3(C2)CN([C@H]2CCOc4ccccc42)C3)n(-c2ccccc2C)n1` [Compound C4, reference compound], the IC50 was over 10000 nM.

Still in this test, the particulars now being: Method 12: Reaction Biology MAGL enzyme, 15 nM; 4NPA substrate; read-out: MAGL Potency (Detection Method).
On to `O=C(c1cc(O)ccc1F)N1CC2(CC(n3nc(C(F)(F)F)cc3-c3ccncc3)C2)C1` [Compound 7, (2-fluoro-5-hydroxyphenyl){6-[5-(4-pyridyl)-3-(trifluoromethyl)-1-pyrazolyl]-2-aza-2-spiro[3.3]heptyl}methanone], for which the IC50 was in the range of 150 to 500 nM.

For the compound `O=C1CCC(c2c(C(F)(F)F)cnn2C2CC3(C2)CN(C(=O)c2cc(O)ccc2F)C3)CN1` (centres unmarked) [Compound 41, 5-(1-{2-(2-fluoro-5-hydroxybenzoyl)-2-aza-6-spiro[3.3]heptyl}-4-(trifluoromethyl)-5-pyrazolyl)-2-piperidinone], the IC50 is 150 to 500 nM.

Turning to `O=C(c1cc(O)ccc1F)N1CC2(CC(n3nc(-c4ccncc4)cc3C(F)(F)F)C2)C1` [Compound 8, (2-fluoro-5-hydroxyphenyl){6-[3-(4-pyridyl)-5-(trifluoromethyl)-1-pyrazolyl]-2-aza-2-spiro[3.3]heptyl}methanone], the IC50 was under 50 nM.

Take `O=C(c1cc(O)ccc1F)N1CC2(CC(n3cc(C(F)(F)F)c(-c4ccc(=O)[nH]c4)n3)C2)C1` [Compound 32]: the IC50 is 50 to 150 nM.

For `O=C(c1cc(O)ccc1F)N1CC2(CC(n3nc(C(F)(F)F)cc3-c3cccnc3)C2)C1` [Compound 3, (2-fluoro-5-hydroxyphenyl){6-[5-(3-pyridyl)-3-(trifluoromethyl)-1-pyrazolyl]-2-aza-2-spiro[3.3]heptyl}methanone], the IC50 lay within 50 to 150 nM.

For the compound `O=C(c1cc(O)ccc1F)N1CC2(CC(n3ncc(C(F)(F)F)c3-c3cccnc3F)C2)C1` [Compound 21], the IC50 was 150 to 500 nM.

As to `O=C(c1cc(O)ccc1F)N1CC2(CC(n3nc(-c4ccccn4)cc3C(F)(F)F)C2)C1` [Compound 6, (2-fluoro-5-hydroxyphenyl){6-[3-(2-pyridyl)-5-(trifluoromethyl)-1-pyrazolyl]-2-aza-2-spiro[3.3]heptyl}methanone], the IC50 is 150 to 500 nM.

For the compound `O=C(c1cc(O)ccc1F)N1CC2(CC(n3nc(C(F)(F)F)cc3-c3ccc[nH]c3=O)C2)C1` [Compound 11, 3-(1-(2-(2-fluoro-5-hydroxybenzoyl)-2-azaspiro [3.3]heptan-6-yl)-3-(trifluoromethyl)-1H-pyrazol-5-yl) pyridin-2(1H)-one], the IC50 fell in the range of 150 to 500 nM.

For the compound `O=C(c1cc(O)ccc1F)N1CC2(CC(n3ncc(C(F)(F)F)c3-c3ccc[nH]c3=O)C2)C1` [Compound 29, 3-(1-{2-(2-fluoro-5-hydroxybenzoyl)-2-aza-6-spiro[3.3]heptyl}-4-(trifluoromethyl)-5-pyrazolyl)-2(1H)-pyridinone], the IC50 lay within 1000 to 5100 nM.

Take `O=C(c1cc(O)ccc1F)N1CC2(CC(n3nc(C(F)(F)F)cc3-c3ccc(=O)[nH]c3)C2)C1` [Compound 9, 5-(1-(2-(2-fluoro-5-hydroxybenzoyl)-2-azaspiro [3.3]heptan-6-yl)-3-(trifluoromethyl)-1H-pyrazol-5-yl) pyridin-2(1H)-one]: the IC50 lay within 150 to 500 nM.

Turning to `O=C(c1cc(O)ccc1F)N1CC2(CC(n3cc(C(F)(F)F)c(-c4cccnc4)n3)C2)C1` [Compound 2, (2-fluoro-5-hydroxyphenyl){6-[3-(3-pyridyl)-4-(trifluoromethyl)-1-pyrazolyl]-2-aza-2-spiro[3.3]heptyl}methanone], the IC50 was under 50 nM.

With `COc1ncccc1-c1cc(C(F)(F)F)nn1C1CC2(C1)CN(C(=O)c1cc(O)ccc1F)C2` [Compound 16], the IC50 lay in the range of 50 to 150 nM.

For the compound `O=C(c1cc(O)ccc1F)N1CC2(CC(n3cc(C(F)(F)F)c(-c4ccc[nH]c4=O)n3)C2)C1` [Compound 30, 3-(1-{2-(2-fluoro-5-hydroxybenzoyl)-2-aza-6-spiro[3.3]heptyl}-4-(trifluoromethyl)-3-pyrazolyl)-2(1H)-pyridinone], the IC50 fell in the range of 50 to 150 nM.

Regarding `O=C(c1cc(O)ccc1F)N1CC2(CC(n3nc(C(F)(F)F)cc3-c3cncc(F)c3)C2)C1` [Compound 13], the IC50 was 150 to 500 nM.

In the case of `O=C(c1ccc(F)cc1OC1CC1)N1CC2(CC(N3C=C(c4ccccc4F)CC3=O)C2)C1` [Compound 33, 1-{2-(2-cyclopropoxy-4-fluorobenzoyl)-2-aza-6-spiro[3.3]heptyl}-3-(o-fluorophenyl)-2-pyrrolin-5-one], the IC50 is 1000 to 5100 nM.

Take `COc1ccc(-c2nn(C3CC4(C3)CN(C(=O)c3cc(O)ccc3F)C4)cc2C(F)(F)F)cn1` [Compound 28, (2-fluoro-5-hydroxyphenyl){6-[3-(6-methoxy-3-pyridyl)-4-(trifluoromethyl)-1-pyrazolyl]-2-aza-2-spiro[3.3]heptyl}methanone]: the IC50 is under 50 nM.

`O=C(c1cc(O)ccc1F)N1CC2(CC(n3ncc(C(F)(F)F)c3-c3cccnc3)C2)C1` [Compound 1, (2-fluoro-5-hydroxyphenyl){6-[5-(3-pyridyl)-4-(trifluoromethyl)-1-pyrazolyl]-2-aza-2-spiro[3.3]heptyl}methanone]: the IC50 was 150 to 500 nM.

For `COc1ncccc1-c1nn(C2CC3(C2)CN(C(=O)c2cc(O)ccc2F)C3)cc1C(F)(F)F` [Compound 20], the IC50 fell in the range of 150 to 500 nM.

Consider `O=C(c1cc(O)ccc1F)N1CC2(CC(n3ncc(C(F)(F)F)c3-c3ccc(=O)[nH]c3)C2)C1` [Compound 31, 5-(1-{2-(2-fluoro-5-hydroxybenzoyl)-2-aza-6-spiro[3.3]heptyl}-4-(trifluoromethyl)-5-pyrazolyl)-2(1H)-pyridinone], for which the IC50 is 1000 to 5100 nM.

Take `O=C(c1cc(O)ccc1F)N1CC2(CC(n3nc(-c4cncc(F)c4)cc3C(F)(F)F)C2)C1` [Compound 14, (2-fluoro-5-hydroxyphenyl){6-[3-(5-fluoro-3-pyridyl)-5-(trifluoromethyl)-1-pyrazolyl]-2-aza-2-spiro[3.3]heptyl}methanone]: the IC50 was in the range of 50 to 150 nM.

`COc1ccc(-c2c(C(F)(F)F)cnn2C2CC3(C2)CN(C(=O)c2cc(O)ccc2F)C3)cn1` [Compound 27]: the IC50 is 50 to 150 nM.

Take `COc1ccc(-c2cc(C(F)(F)F)nn2C2CC3(C2)CN(C(=O)c2cc(O)ccc2F)C3)cn1` [Compound 18, (2-fluoro-5-hydroxyphenyl) (6-(5-(6-methoxypyridin-3-yl)-3-(trifluoromethyl)-1H-pyrazol-1-yl)-2-azaspiro [3.3]heptan-2-yl) methanone]: the IC50 lay within 150 to 500 nM.

As for `O=C(c1cc(O)ccc1F)N1CC2(CC(n3nc(-c4cccnc4)cc3C(F)(F)F)C2)C1` [Compound 4, (2-fluoro-5-hydroxyphenyl){6-[3-(3-pyridyl)-5-(trifluoromethyl)-1-pyrazolyl]-2-aza-2-spiro[3.3]heptyl}methanone], the IC50 was under 50 nM.

In the case of `O=C(c1cc(O)ccc1F)N1CC2(CC(n3cc(C(F)(F)F)c(-c4cccnc4F)n3)C2)C1` [Compound 22, (2-fluoro-5-hydroxyphenyl){6-[3-(2-fluoro-3-pyridyl)-4-(trifluoromethyl)-1-pyrazolyl]-2-aza-2-spiro[3.3]heptyl}methanone], the IC50 was under 50 nM.

In the case of `COc1ncccc1-c1c(C(F)(F)F)cnn1C1CC2(C1)CN(C(=O)c1cc(O)ccc1F)C2` [Compound 19, (2-fluoro-5-hydroxyphenyl){6-[5-(2-methoxy-3-pyridyl)-4-(trifluoromethyl)-1-pyrazolyl]-2-aza-2-spiro[3.3]heptyl}methanone], the IC50 was under 50 nM.
